{"source": "patent US12343363B2", "about": "“Lactic acid bacterial composition for the treatment of bacterial vaginal infections by Gardnerella vaginalis and, if present, of concurrent fungal infections” (PROBIOTICAL S.P.A., priority 2016, dated 2025)", "key": {"[1]": {"test_system": "Candida albicans", "assay": "Single-blind clinical study of LF5 vaginal capsules compared with miconazole", "assay_type": "in vivo, human", "method": "100 patients with vaginal candidiasis, average age of 38.0 years (range 19-61 years) randomly assigned to two groups, which resulted homogeneous, each of 50 patients treated with miconazole or LF5 dosed at ≤10^9 in vaginal capsule formulation at a dosage of 1 vaginal capsule at night for three consecutive days, according to the single-blind experimental design were treated.\nNo discontinuations during the treatment nor during the two weeks of post-treatment observation occurred; thus two groups of 50 observations for efficacy and tolerability are provided."}, "[2]": {"test_system": "C. parapsilosis ATCC 22019", "assay": "Miconazole broth macrodilution test (optical density)", "assay_type": "cell-based, Candida parapsilosis", "excerpt": "(§1) The strains of Candida being used in the present study were purchased from the American Type Culture Collection (ATCC). Specifically, the following biotypes were used: C. albicans ATCC 10231, C. parapsilosis ATCC 22019, C. krusei ATCC 6258, C. glabrata ATCC 2001 and C. tropicalis ATCC 750 (14). The strains of lactobacilli of this study, all isolated from vaginal swabs of healthy female subjects or directly brushing the intestinal mucosa of healthy humans, were classified based on their phenotypic and genotypic characteristics: L. fermentum LF5 (DSM 32277), L. fermentum LF09 (DSM 18298), L. fermentum LF10 (DSM 19187) and L. fermentum LF11 (DSM 19188).\n(§2) The probiotic strains were cultured overnight in De Man, Rogosa and Sharpe (MRS) medium (Difco, B D, Maryland). In all the experiments, fresh culture media for all the strains of Candida were used. Before the experiment, the single strains of Candida were cultured in Sabouraud Dextrose Broth (Difco, B D, Maryland), an optimal medium for yeasts, for 48 hours under aerobic conditions.\n(§3) Evaluation of the fungicidal activity. The minimum inhibitory concentration (MIC) for fluconazole was determined by E-test (bioMerieux Italy, Florence) with MHE agar. The plates were incubated under aerobic conditions at 30° C. and read after 24 hours. Furthermore, since there is no specific E-test for miconazole, the MIC was determined by using the broth macrodilution method. We assessed the activity of serially diluted fluconazole and miconazole (Sigma-Aldrich, Missouri, USA) (from […] to […]) against the Candida strains. Serial dilutions of azoles were prepared in Sabouraud Dextrose Broth in the presence of strains of Candida and broths were incubated under aerobic conditions at 30° C. and then read at an optical density (DO) of 560 nm."}, "[3]": {"test_system": "C. albicans ATCC 10231", "assay": "Miconazole broth macrodilution test (optical density)", "assay_type": "cell-based, Candida albicans", "excerpt": "as §1, §2, §3"}, "[4]": {"test_system": "C. tropicalis ATCC 750", "assay": "Miconazole broth macrodilution test (optical density)", "assay_type": "cell-based, Candida tropicalis", "excerpt": "as §1, §2, §3"}, "[5]": {"test_system": "C. krusei ATCC 6258", "assay": "Miconazole broth macrodilution test (optical density)", "assay_type": "cell-based, Candida krusei", "excerpt": "as §1, §2, §3"}, "[6]": {"test_system": "C. glabrata ATCC 2001", "assay": "Miconazole broth macrodilution test (optical density)", "assay_type": "cell-based, Candida glabrata", "excerpt": "as §1, §2, §3"}, "[7]": {"test_system": "Candida glabrata ATCC 2001", "assay": "Fluconazole MIC by E-test", "assay_type": "cell-based", "conditions": "Nakaseomyces glabratus, ATCC2001; E_test, range 0.016-256 μg/ml; read-out: MIC (minimum inhibitory concentration)", "excerpt": "as §1, §3"}, "[8]": {"test_system": "Candida krusei ATCC 6258", "assay": "Fluconazole MIC by E-test", "assay_type": "cell-based", "conditions": "Pichia kudriavzevii, ATCC6258; E_test, range 0.016-256 μg/ml; read-out: MIC (minimum inhibitory concentration)", "excerpt": "as §1, §3"}, "[9]": {"test_system": "Candida parapsilosis ATCC 22019", "assay": "Fluconazole MIC by E-test", "assay_type": "cell-based", "conditions": "Lodderomyces parapsilosis, ATCC22019; E_test, range 0.016-256 μg/ml; read-out: MIC (minimum inhibitory concentration)", "excerpt": "as §1, §3"}, "[10]": {"test_system": "Candida tropicalis ATCC 750", "assay": "Fluconazole MIC by E-test", "assay_type": "cell-based", "conditions": "ATCC750, E_test, range 0.016-256 μg/ml, read-out: MIC (minimum inhibitory concentration)", "excerpt": "as §1, §3"}, "[11]": {"conditions": "Miconazole 1 μg/ml, broth macrodilution"}}}
{"smiles": "Clc1ccc(COC(Cn2ccnc2)c2ccc(Cl)cc2Cl)c(Cl)c1", "note": "(stereo not drawn) [Miconazole, miconazole]", "values": [{"measurement": "local adverse events", "setting": "[1]; 50 patients per group", "result": 6, "unit": "cases"}, {"measurement": "Positive/negative", "setting": "[1]; 3 days, 1 vaginal capsule at night for three consecutive days, 50 patients per group", "result": "3/47"}, {"measurement": "Positive/negative", "setting": "[1]; Final (two weeks of post-treatment observation), 50 patients per group", "result": "8/42"}, {"measurement": "microbiological eradication of Candida, patients", "setting": "[1]; at the end of the three-day treatment", "result": 94, "unit": "%"}, {"measurement": "frequency of local adverse events", "setting": "[1]; female, human, in vivo, 3 days", "result": 12, "unit": "%"}, {"measurement": "Adverse events: Adverse", "setting": "[1]; number of 50 patients", "result": 47}, {"measurement": "Adverse events: Present", "setting": "[1]; number of 50 patients", "result": 3}, {"measurement": "Eradication: Failure", "setting": "[1]; number of 50 patients", "result": 3}, {"measurement": "Eradication: Relapse", "setting": "[1]; number of 50 patients", "result": 5}, {"measurement": "Eradication: Success", "setting": "[1]; number of 50 patients", "result": 42}, {"measurement": "Patient's opinion about efficacy: Acceptable", "setting": "[1]; number of 50 patients", "result": 5}, {"measurement": "Patient's opinion about efficacy: Excellent", "setting": "[1]; number of 50 patients", "result": 38}, {"measurement": "Patient's opinion about efficacy: Good", "setting": "[1]; number of 50 patients", "result": 4}, {"measurement": "Patient's opinion about efficacy: None", "setting": "[1]; number of 50 patients", "result": 3}, {"measurement": "Tolerability opinion: Acceptable", "setting": "[1]; number of 50 patients", "result": 3}, {"measurement": "Tolerability opinion: Excellent", "setting": "[1]; number of 50 patients", "result": 44}, {"measurement": "Tolerability opinion: Good", "setting": "[1]; number of 50 patients", "result": 3}, {"measurement": "Tolerability opinion: None", "setting": "[1]; number of 50 patients", "result": 0}, {"measurement": "MIC", "setting": "[2]; Lodderomyces parapsilosis, ATCC22019, C. parapsilosis ATCC 22019", "result": 1000, "unit": "µg/mL"}, {"measurement": "optical density, OD", "setting": "[2]; Miconazole 1.000 μg/ml", "result": 0.295}, {"measurement": "optical density, OD", "setting": "[2]; [11]", "result": 1.515}, {"measurement": "optical density, OD", "setting": "[2]; Miconazole 2.50 μg/ml", "result": 1.115}, {"measurement": "optical density, OD", "setting": "[2]; Miconazole 5.00 μg/ml", "result": 0.975}, {"measurement": "optical density, OD", "setting": "[2]; Miconazole 50 μg/ml", "result": 0.894}, {"measurement": "optical density, OD", "setting": "[2]; Miconazole 250 μg/ml", "result": 0.701}, {"measurement": "optical density, OD", "setting": "[2]; Miconazole 300 μg/ml", "result": 0.415}, {"measurement": "optical density, OD", "setting": "[2]; Miconazole 500 μg/ml", "result": 0.314}, {"measurement": "optical density, OD", "setting": "[3]; Miconazole 1.000 μg/ml", "result": 1.464}, {"measurement": "optical density, OD", "setting": "[3]; [11]", "result": 1.906}, {"measurement": "optical density, OD", "setting": "[3]; Miconazole 2.50 μg/ml", "result": 1.910}, {"measurement": "optical density, OD", "setting": "[3]; Miconazole 5.00 μg/ml", "result": 1.901}, {"measurement": "optical density, OD", "setting": "[3]; Miconazole 50 μg/ml", "result": 1.905}, {"measurement": "optical density, OD", "setting": "[3]; Miconazole 250 μg/ml", "result": 1.916}, {"measurement": "optical density, OD", "setting": "[3]; Miconazole 300 μg/ml", "result": 1.889}, {"measurement": "optical density, OD", "setting": "[3]; Miconazole 500 μg/ml", "result": 1.863}, {"measurement": "optical density, OD", "setting": "[4]; Miconazole 1.000 μg/ml", "result": 1.931}, {"measurement": "optical density, OD", "setting": "[4]; [11]", "result": 1.950}, {"measurement": "optical density, OD", "setting": "[4]; Miconazole 2.50 μg/ml", "result": 1.927}, {"measurement": "optical density, OD", "setting": "[4]; Miconazole 5.00 μg/ml", "result": 1.908}, {"measurement": "optical density, OD", "setting": "[4]; Miconazole 50 μg/ml", "result": 1.846}, {"measurement": "optical density, OD", "setting": "[4]; Miconazole 250 μg/ml", "result": 1.942}, {"measurement": "optical density, OD", "setting": "[4]; Miconazole 300 μg/ml", "result": 1.937}, {"measurement": "optical density, OD", "setting": "[4]; Miconazole 500 μg/ml", "result": 1.903}, {"measurement": "optical density, OD", "setting": "[5]; Miconazole 1.000 μg/ml", "result": 1.972}, {"measurement": "optical density, OD", "setting": "[5]; [11]", "result": 1.990}, {"measurement": "optical density, OD", "setting": "[5]; Miconazole 2.50 μg/ml", "result": 1.900}, {"measurement": "optical density, OD", "setting": "[5]; Miconazole 5.00 μg/ml", "result": 1.893}, {"measurement": "optical density, OD", "setting": "[5]; Miconazole 50 μg/ml", "result": 1.994}, {"measurement": "optical density, OD", "setting": "[5]; Miconazole 250 μg/ml", "result": 2.004}, {"measurement": "optical density, OD", "setting": "[5]; Miconazole 300 μg/ml", "result": 1.999}, {"measurement": "optical density, OD", "setting": "[5]; Miconazole 500 μg/ml", "result": 1.988}, {"measurement": "optical density, OD", "setting": "[6]; Miconazole 1.000 μg/ml", "result": 2.198}, {"measurement": "optical density, OD", "setting": "[6]; [11]", "result": 2.260}, {"measurement": "optical density, OD", "setting": "[6]; Miconazole 2.50 μg/ml", "result": 2.260}, {"measurement": "optical density, OD", "setting": "[6]; Miconazole 5.00 μg/ml", "result": 2.246}, {"measurement": "optical density, OD", "setting": "[6]; Miconazole 50 μg/ml", "result": 2.239}, {"measurement": "optical density, OD", "setting": "[6]; Miconazole 250 μg/ml", "result": 2.212}, {"measurement": "optical density, OD", "setting": "[6]; Miconazole 300 μg/ml", "result": 2.215}, {"measurement": "optical density, OD", "setting": "[6]; Miconazole 500 μg/ml", "result": 2.213}]}
{"smiles": "OC(Cn1cncn1)(Cn1cncn1)c1ccc(F)cc1F", "note": "[fluconazole]", "values": [{"measurement": "MIC", "setting": "[7]", "result": "> 256", "unit": "µg/mL"}, {"measurement": "MIC", "setting": "[8]", "result": "> 256", "unit": "µg/mL"}, {"measurement": "MIC", "setting": "[9]", "result": 1, "unit": "µg/mL"}, {"measurement": "MIC", "setting": "[10]", "result": "> 256", "unit": "µg/mL"}]}
